According to patent US6872690B2, “Herbicidal 2-alkynyl-pyri (mi) dines” (WYETH, priority 2001, dated 2005):

Legend:
Assay type in all cases: in vivo
[1] = tested on: Alopecurus myosuroides; assay: Post-emergence herbicidal activity test; settings: 2-4 weeks after treatment
Outline: (§1)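 Sprayed post-emergence at about 0.025 to 0.4 kg per hectare per pot, using water-diluted acetone solutions, then assessed by visual rating after 2 to 4 weeks in the greenhouse.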

[2] = tested on: Ambrosia artemisifolia; assay: Post-emergence herbicidal activity test; settings: 2-4 weeks after treatment
Outline: as §1

[3] = tested on: Triticum aestivum; assay: Post-emergence herbicidal activity test; settings: 2-4 weeks after treatment
Outline: as §1

[4] = tested on: Matricaria inodora; assay: Post-emergence herbicidal activity test; settings: 2-4 weeks after treatment
Outline: as §1

[5] = tested on: Ipomoea hederacea; assay: Post-emergence herbicidal activity test; settings: 2-4 weeks after treatment
Outline: as §1

[6] = tested on: Glycine max; assay: Post-emergence herbicidal activity test; settings: 2-4 weeks after treatment
Outline: as §1

[7] = tested on: Zea mays; assay: Post-emergence herbicidal activity test; settings: 2-4 weeks after treatment
Outline: as §1

[8] = tested on: Abutilon theophrasti; assay: Post-emergence herbicidal activity test; settings: 2-4 weeks after treatment
Outline: as §1

[9] = tested on: Echinochloa crus-galli; assay: Post-emergence herbicidal activity test; settings: 2-4 weeks after treatment
Outline: as §1

[10] = tested on: Setaria viridis; assay: Post-emergence herbicidal activity test; settings: 2-4 weeks after treatment
Outline: as §1

[11] = tested on: Alopecurus myosuroides; assay: Pre-emergence test; settings: 3 weeks after treatment
Outline: (§2)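 Pre-emergence spray onto horticultural loam freshly sown with seeds, using acetone solutions containing 0.4% TRITON X-155 diluted in water. Applied at 0.013, 0.025, 0.100 or 0.400 kg active material per hectare in 900 litres per hectare. Pots rated 2 to 4 weeks after treatment against untreated sown controls.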

[12] = tested on: Ambrosia artemisifolia; assay: Pre-emergence test; settings: 3 weeks after treatment
Outline: as §2

[13] = tested on: Digitaria sanguinalis; assay: Pre-emergence test; settings: 3 weeks after treatment
Outline: as §2

[14] = tested on: Triticum aestivum; assay: Pre-emergence test; settings: 3 weeks after treatment
Outline: as §2

[15] = tested on: Matricaria inodora; assay: Pre-emergence test; settings: 3 weeks after treatment
Outline: as §2

[16] = tested on: Ipomoea hederacea; assay: Pre-emergence test; settings: 3 weeks after treatment
Outline: as §2

[17] = tested on: Cassia obtusifolia; assay: Pre-emergence test; settings: 3 weeks after treatment
Outline: as §2

[18] = tested on: Orysa sativa; assay: Pre-emergence test; settings: 3 weeks after treatment
Outline: as §2

[19] = tested on: Glycine max; assay: Pre-emergence test; settings: 3 weeks after treatment
Outline: as §2

[20] = tested on: Zea mays; assay: Pre-emergence test; settings: 3 weeks after treatment
Outline: as §2

[21] = tested on: Galium aparine; assay: Pre-emergence test; settings: 3 weeks after treatment
Outline: as §2

[22] = tested on: Abutilon theophrasti; assay: Pre-emergence test; settings: 3 weeks after treatment
Outline: as §2

[23] = tested on: Stellaria media; assay: Pre-emergence test; settings: 0.400 kg/ha, 3 weeks after treatment
Outline: as §2

[24] = tested on: Lamium purpureum; assay: Pre-emergence test; settings: 3 weeks after treatment
Outline: as §2

[25] = tested on: Echinochloa crus-galli; assay: Pre-emergence test; settings: 3 weeks after treatment
Outline: as §2

[26] = tested on: Setaria viridis; assay: Pre-emergence test; settings: 3 weeks after treatment
Outline: as §2

[27] = tested on: Digitaria sanguinalis; assay: Post-emergence herbicidal activity test; settings: 2-4 weeks after treatment
Outline: as §1

[28] = tested on: Cassia obtusifolia; assay: Post-emergence herbicidal activity test; settings: 2-4 weeks after treatment
Outline: as §1

[29] = tested on: Orysa sativa; assay: Post-emergence herbicidal activity test; settings: 2-4 weeks after treatment
Outline: as §1

[30] = tested on: Galium aparine; assay: Post-emergence herbicidal activity test; settings: 2-4 weeks after treatment
Outline: as §1

[31] = tested on: Stellaria media; assay: Post-emergence herbicidal activity test; settings: 2-4 weeks after treatment
Outline: as §1

## Cc1cc(C#C[Si](C)(C)C)nc(Oc2cc(C(F)(F)F)nn2C)c1 [Example 14]
[1]; 0.200 kg/ha
  Post-emergence application ALOMY: 3 (3-Moderate effect)
[2]; 0.200 kg/ha
  Post-emergence application AMBEL: 3 (3-Moderate effect)
[3]; 0.200 kg/ha
  Post-emergence application TRZWA: 1 (1-Trace effect)
[4]; 0.200 kg/ha
  Post-emergence application MATIN: 5 (5-Definite injury)
[5]; 0.200 kg/ha
  Post-emergence application IPOHE: 8 (8-Approaching complete kill)
[6]; 0.200 kg/ha
  Post-emergence application GLXMA: 4 (4-Injury)
[7]; 0.200 kg/ha
  Post-emergence application ZEAMX: 1 (1-Trace effect)
[8]; 0.200 kg/ha
  Post-emergence application ABUTH: 1 (1-Trace effect)
[9]; 0.200 kg/ha
  Post-emergence application ECHCG: 1 (1-Trace effect)
[10]; 0.200 kg/ha
  Post-emergence application SETVI: 3 (3-Moderate effect)
[11]; 0.400 kg/ha
  Assessment (pre-emergence application) ALOMY: 7 (7-Good herbicidal effect)
[12]; 0.400 kg/ha
  Assessment (pre-emergence application) MBEL: 9 (9-Complete kill)
[13]; 0.400 kg/ha
  Assessment (pre-emergence application) DIGSA: 9 (9-Complete kill)
[14]; 0.400 kg/ha
  Assessment (pre-emergence application) TRZWA: 1 (1-Trace effect)
[15]; 0.400 kg/ha
  Assessment (pre-emergence application) MATIN: 8 (8-Approaching complete kill)
[16]; 0.400 kg/ha
  Assessment (pre-emergence application) IPOHE: 1 (1-Trace effect)
[17]; 0.400 kg/ha
  Assessment (pre-emergence application) CASOB: 3 (3-Moderate effect)
[18]; 0.400 kg/ha
  Assessment (pre-emergence application) ORYSA: 0 (0-No effect)
[19]; 0.400 kg/ha
  Assessment (pre-emergence application) GLXMA: 2 (2-Slight effect)
[20]; 0.400 kg/ha
  Assessment (pre-emergence application) ZEAMX: 1 (1-Trace effect)
[21]; 0.400 kg/ha
  Assessment (pre-emergence application) GALAP: 1 (1-Trace effect)
[22]; 0.400 kg/ha
  Assessment (pre-emergence application) ABUTH: 0 (0-No effect)
[23]
  Assessment (pre-emergence application) STEME: 9 (9-Complete kill)
[24]; 0.400 kg/ha
  Assessment (pre-emergence application) LAMPU: 9 (9-Complete kill)
[25]; 0.400 kg/ha
  Assessment (pre-emergence application) ECHCG: 5 (5-Definite injury)
[26]; 0.400 kg/ha
  Assessment (pre-emergence application) SETVI: 5 (5-Definite injury)

## Cc1cc(Oc2cc(C(F)(F)F)nn2C)nc(C#Cc2ccccc2)n1 [Example 161]
[1]; 0.100 kg/ha
  Post-emergence application ALOMY: 2 (2-Slight effect)
[1]; 0.400 kg/ha
  Post-emergence application ALOMY: 3 (3-Moderate effect)
[2]; 0.100 kg/ha
  Post-emergence application AMBEL: 5 (5-Definite injury)
[2]; 0.400 kg/ha
  Post-emergence application AMBEL: 5 (5-Definite injury)
[27]; 0.100 kg/ha
  Post-emergence application DIGSA: 2 (2-Slight effect)
[27]; 0.400 kg/ha
  Post-emergence application DIGSA: 2 (2-Slight effect)
[3]; 0.100 kg/ha
  Post-emergence application TRZWA: 2 (2-Slight effect)
[3]; 0.400 kg/ha
  Post-emergence application TRZWA: 2 (2-Slight effect)
[4]; 0.100 kg/ha
  Post-emergence application MATIN: 3 (3-Moderate effect)
[4]; 0.400 kg/ha
  Post-emergence application MATIN: 4 (4-Injury)
[5]; 0.100 kg/ha
  Post-emergence application IPOHE: 9 (9-Complete kill)
[5]; 0.400 kg/ha
  Post-emergence application IPOHE: 9 (9-Complete kill)
[28]; 0.100 kg/ha
  Post-emergence application CASOB: 1 (1-Trace effect)
[28]; 0.400 kg/ha
  Post-emergence application CASOB: 3 (3-Moderate effect)
[29]; 0.100 kg/ha
  Post-emergence application ORYSA: 2 (2-Slight effect)
[29]; 0.400 kg/ha
  Post-emergence application ORYSA: 3 (3-Moderate effect)
[6]; 0.100 kg/ha
  Post-emergence application GLXMA: 3 (3-Moderate effect)
[7]; 0.100 kg/ha
  Post-emergence application ZEAMX: 2 (2-Slight effect)
[7]; 0.400 kg/ha
  Post-emergence application ZEAMX: 2 (2-Slight effect)
[30]; 0.100 kg/ha
  Post-emergence application GALAP: 7 (7-Good herbicidal effect)
[30]; 0.400 kg/ha
  Post-emergence application GALAP: 8 (8-Approaching complete kill)
[8]; 0.100 kg/ha
  Post-emergence application ABUTH: 4 (4-Injury)
[8]; 0.400 kg/ha
  Post-emergence application ABUTH: 5 (5-Definite injury)
[31]; 0.100 kg/ha
  Post-emergence application STEME: 2 (2-Slight effect)
[31]; 0.400 kg/ha
  Post-emergence application STEME: 4 (4-Injury)
[9]; 0.100 kg/ha
  Post-emergence application ECHCG: 1 (1-Trace effect)
[9]; 0.400 kg/ha
  Post-emergence application ECHCG: 2 (2-Slight effect)
[10]; 0.100 kg/ha
  Post-emergence application SETVI: 4 (4-Injury)
[10]; 0.400 kg/ha
  Post-emergence application SETVI: 6 (6-Herbicidal effect)
[11]; 0.025 kg/ha
  Assessment (pre-emergence application) ALOMY: 9 (9-Complete kill)
[11]; 0.100 kg/ha
  Assessment (pre-emergence application) ALOMY: 1 (1-Trace effect)
[11]; 0.400 kg/ha
  Assessment (pre-emergence application) ALOMY: 3 (3-Moderate effect)
[12]; 0.025 kg/ha
  Assessment (pre-emergence application) MBEL: 2 (2-Slight effect)
[12]; 0.100 kg/ha
  Assessment (pre-emergence application) MBEL: 2 (2-Slight effect)
[13]; 0.025 kg/ha
  Assessment (pre-emergence application) DIGSA: 1 (1-Trace effect)
[13]; 0.100 kg/ha
  Assessment (pre-emergence application) DIGSA: 3 (3-Moderate effect)
[13]; 0.400 kg/ha
  Assessment (pre-emergence application) DIGSA: 9 (9-Complete kill)
[14]; 0.025 kg/ha
  Assessment (pre-emergence application) TRZWA: 0 (0-No effect)
[14]; 0.100 kg/ha
  Assessment (pre-emergence application) TRZWA: 0 (0-No effect)
[14]; 0.400 kg/ha
  Assessment (pre-emergence application) TRZWA: 0 (0-No effect)
[15]; 0.025 kg/ha
  Assessment (pre-emergence application) MATIN: 3 (3-Moderate effect)
[15]; 0.100 kg/ha
  Assessment (pre-emergence application) MATIN: 4 (4-Injury)
[15]; 0.400 kg/ha
  Assessment (pre-emergence application) MATIN: 8 (8-Approaching complete kill)
[16]; 0.025 kg/ha
  Assessment (pre-emergence application) IPOHE: 0 (0-No effect)
[16]; 0.100 kg/ha
  Assessment (pre-emergence application) IPOHE: 3 (3-Moderate effect)
[16]; 0.400 kg/ha
  Assessment (pre-emergence application) IPOHE: 3 (3-Moderate effect)
[17]; 0.025 kg/ha
  Assessment (pre-emergence application) CASOB: 0 (0-No effect)
[17]; 0.100 kg/ha
  Assessment (pre-emergence application) CASOB: 0 (0-No effect)
[17]; 0.400 kg/ha
  Assessment (pre-emergence application) CASOB: 0 (0-No effect)
[18]; 0.025 kg/ha
  Assessment (pre-emergence application) ORYSA: 0 (0-No effect)
[18]; 0.100 kg/ha
  Assessment (pre-emergence application) ORYSA: 1 (1-Trace effect)
[18]; 0.400 kg/ha
  Assessment (pre-emergence application) ORYSA: 1 (1-Trace effect)
[19]; 0.025 kg/ha
  Assessment (pre-emergence application) GLXMA: 0 (0-No effect)
[19]; 0.100 kg/ha
  Assessment (pre-emergence application) GLXMA: 0 (0-No effect)
[19]; 0.400 kg/ha
  Assessment (pre-emergence application) GLXMA: 1 (1-Trace effect)
[20]; 0.025 kg/ha
  Assessment (pre-emergence application) ZEAMX: 0 (0-No effect)
[20]; 0.100 kg/ha
  Assessment (pre-emergence application) ZEAMX: 0 (0-No effect)
[20]; 0.400 kg/ha
  Assessment (pre-emergence application) ZEAMX: 0 (0-No effect)
[21]; 0.025 kg/ha
  Assessment (pre-emergence application) GALAP: 1 (1-Trace effect)
[21]; 0.100 kg/ha
  Assessment (pre-emergence application) GALAP: 1 (1-Trace effect)
[21]; 0.400 kg/ha
  Assessment (pre-emergence application) GALAP: 3 (3-Moderate effect)
[22]; 0.025 kg/ha
  Assessment (pre-emergence application) ABUTH: 2 (2-Slight effect)
[22]; 0.100 kg/ha
  Assessment (pre-emergence application) ABUTH: 4 (4-Injury)
[22]; 0.400 kg/ha
  Assessment (pre-emergence application) ABUTH: 4 (4-Injury)
[24]; 0.025 kg/ha
  Assessment (pre-emergence application) LAMPU: 0 (0-No effect)
[24]; 0.100 kg/ha
  Assessment (pre-emergence application) LAMPU: 5 (5-Definite injury)
[24]; 0.400 kg/ha
  Assessment (pre-emergence application) LAMPU: 7 (7-Good herbicidal effect)
[25]; 0.025 kg/ha
  Assessment (pre-emergence application) ECHCG: 0 (0-No effect)
[25]; 0.100 kg/ha
  Assessment (pre-emergence application) ECHCG: 1 (1-Trace effect)
[25]; 0.400 kg/ha
  Assessment (pre-emergence application) ECHCG: 3 (3-Moderate effect)
[26]; 0.025 kg/ha
  Assessment (pre-emergence application) SETVI: 2 (2-Slight effect)
[26]; 0.100 kg/ha
  Assessment (pre-emergence application) SETVI: 4 (4-Injury)
[26]; 0.400 kg/ha
  Assessment (pre-emergence application) SETVI: 7 (7-Good herbicidal effect)
